Test results published in patent publication US20230277503A1, “COMPOSITIONS AND METHODS TO REDUCE PATHOGENESIS” (priority 2017, published 2023).
Entries after “also recorded” stand apart in the source; their conditions may differ. Read-outs that look alike come from different tables or passages of the source. Marks after values point to notes of the source that are not given here.

Tests used:
HSV-1 RE = experiment: Murine model of HSV-1 (RE) chronic herpetic keratitis; assay type: in vivo, BALB/c mice; details: for signs of disease, including stromal opacity and corneal neovascularization: acute herpetic keratitis stage; for weight loss associated with HSV-1 ocular infection: day 5 to 11 post infection; for ocular histology (H&E, central cornea): day 15 post infection; for # Deceased / # Eyes showing signs of disease / Clinically clear eyes: day 15 post-infection, topical drops 4x per day for 8 days, (R)-DOI 500 μM; for stromal opacity score: following day 8 post infection; for clinical scores (slit lamp score, corneal opacity, neovascularization): up to 15 DPI, versus control BSS
Text: (§1) 16 BALB/c mice, which can respond with a TH2 biased immune response, were randomly sorted into 3 treatment arms: 1) Ophthalmic Balanced Saline Solution diluted 1:1 in PBS (BSS+PBS) treated (6 mice); 2) DOI treated (XTPFDOI) (5 mice); 3) 1.0% TFT (TFT+PBS) (5 mice). Animals were anesthetized with […]:ketamine and both eyes were scarified in a cross hatch pattern using a curved needle. Immediately following ocular scarification, eyes were inoculated with a 3 microliter drop containing 10,000 plaque forming units (PFU) of Herpes Simplex Virus type 1 (HSV-1) RE strain. The next morning following infection animals were treated with the respective treatment as assigned within their treatment arm. Treatments were applied topically to the eye in a 4 microliter drop. Drops were applied 4× daily from 9 am to 5:30 pm starting immediately following clinical scoring. Treatments were applied for the first 8 days post infection and then stopped on day 8. Clinical scoring was done using a slit lamp biomicroscope magnified at 16× on the days indicated by a single individual masked to the drug treatment parameters. Slit lamp biomicroscopy also included fluorescein exclusion labeling of the corneal surface following scoring of all clinical parameters. Each eye was scored independently. Clinically clear eyes were scored as such if no apparent signs of disease were present in any clinical parameter during the chronic phase.
At day 15 post infection, a stage that will be during chronic immune-associated disease with no virus present, animals were euthanized and the eyes were removed for histology. Random representative eyes were prepared by taking sections through the central cornea and processed by H&E histology for visualization. Sections were examined microscopically and photographed across the central cornea.
BALB/c eyes were scarified and infected with HSV-1 (RE), an HSV-1 strain that causes herpetic keratitis in 100% of ocular infections^31. Starting 24 hours post-infection, topical drops were applied in a masked fashion 4× per day for 8 days. Individual clinical parameters were monitored and scored in a masked fashion for 15 days.
BALB/c eyes were scarified and infected with 10,000 PFU per eye of HSV-1 RE, an HSV-1 strain that causes herpetic keratitis in 100% of ocular infections.
Referring to FIGS. 37-42, for example, individual clinical parameters were monitored and scored in a masked fashion for 15 days post infection. Parameters included weight, death, epiphora, blepharitis, corneal epithelium, corneal neovascularization, stromal opacity, scleral inflammation and fluorescently visualized slitlamp biomicroscopy.
24 hours post infection, topical drops were applied in a masked fashion 4× per day at 4 ul per drop to the surface of the eye. Topical drops consisted of 1% Trifluorthymidine (1% TFT; Viroptic), Ophthalmic Balanced Salt Solution (BSS), or (R)-DOI in Ophthalmic BSS.
as §1, with “preferentially” for “can”, “(BSS)” for “diluted 1:1 in PBS (BSS+PBS)”, “((R)-DOI)” for “(XTPFDOI)”, “TFT” for “TFT (TFT+PBS)”, “Slit lamp biomicroscopy also included fluorescein exclusion labeling of the corneal surface following scoring of all clinical parameters. Each eye was scored independently. Clinically clear eyes were scored as such if no apparent signs of disease were present in any clinical parameter during the chronic phase.” left out

[1] = tested on: human microvascular endothelial cells (HMEC); experiment: HMEC spheroid vascular-like tubule outgrowth; assay type: cell-based; details: matrigel with VEGF; serotonin 50 nM, R-DOI 100 nM, TCB2 500 nM
Experimental: HMEC cells were cultured in specially coated U-shaped bottom 96 well plates in order to form tissue-like 3 dimension spheroids. Spheroids were subsequently implanted into wells that contained matrigel basement membranes supplemented with vascular endothelial growth factor (VEGF) or starved (Starvation control-no VEGF). Culture media was treated with either serotonin (50 nM), (R-DOI (100 nM) or TCB2 (500 nM) outgrowth from the spheroids of vascular-like structures was monitored microscopically.

[2] = tested on: human microvascular endothelial cells; experiment: Endothelial tubule formation assay; assay type: cell-based; details: geltrex basement membrane
Experimental: Referring to FIG. 35 for example, to assess the ability of 5-HT2A agonists and antagonists to inhibit capillary-like endothelial tube formation, human microvascular endothelial cells were seeded into geltrex basement membrane and overlaid with endothelial growth medium containing vascular endothelial growth factor (VEGF) and the indicated drugs. Both 5HT2A agonists and antagonists disrupted formation of endothelial tube networks, the formation of branching, complex capillary structures, and interconnectivity of capillary tubes.

[3] = tested on: VEGF-mediated neovascularization from aortic rings; experiment: Aortic ring neovascularization assay; assay type: cell-based, mice; details: for blood vessel sprouting, branching and formation from aortic rings: VEGF-containing endothelial growth medium, matrigel
Experimental: Referring to FIG. 34 for example, the aortas from sacrificed mice are removed, cleaned, and dissected into 1 mm tubule sections. These aortic rings are implanted into matrigel basement membrane and incubated in endothelial cell growth medium containing vascular endothelial growth factor. Aortic rings are continuously incubated in the presence of 5HT2A receptor agonists and antagonists at the indicated concentrations and examined by microscopy daily. Extensive sprouting, branching and networking of new blood vessels can be observed in control aortic rings, where multiple images needed to be stitched together in order to capture the extensive blood vessel network formed.

HSV-1 = assay type: cell-based, mice; details: 500 nM; for HSV-1 reactivation and amount of infectious virus shed from latent neurons (PFU/ml/TG): relative to mock/buffer control, 10 days
[4] = tested on: TNFα-induced inflammatory gene and protein expression; details: intraperitoneal, doses up to 30-fold below the CNS behaviorally-active threshold dose; aorta and intestine; cited from earlier work
asthma in a rat model = experiment: Rat model of asthma (OVA); assay type: in vivo; details: OVA (ovalbumin) allergen
Text: OVA is ovalbumin, a frequently used allergen that induces robust, allergic pulmonary inflammation in laboratory rodents.

| Structure (SMILES) | signs of disease, including stromal opacity and corneal neovascularization (HSV-1 RE) | weight loss associated with HSV-1 ocular infection (HSV-1 RE) | # Deceased (HSV-1 RE) | # Eyes showing signs of disease (HSV-1 RE) | Clinically clear eyes (HSV-1 RE) | stromal opacity score (HSV-1 RE) | clinical scores (slit lamp score, corneal opacity, neovascularization) (HSV-1 RE) | vascular-like tubular growth from HMEC spheroids [1] | VEGF-mediated human vascular endothelium tubule formation [2] | blood vessel sprouting, branching and formation from aortic rings [3] | other results |
| --- | --- | --- | --- | --- | --- | --- | --- | --- | --- | --- | --- |
| O=c1[nH]c(=O)n([C@H]2C[C@H](O)[C@@H](CO)O2)cc1C(F)(F)F [1% TFT, trifluorothymidine, reference compound] | reduced signs of disease | experienced weight loss associated with HSV-1 ocular infections | 0/5 | 7/10 | 0/10 | markedly increased opacity score | initially controlled ocular disease development relative to control BSS treated eyes | – | – | – | ocular histology (H&E, central cornea) (HSV-1 RE; listed as TFT): immune cell infiltration, thickening of the stroma, neovascularization, and disruption of the corneal epithelial layers |
| COc1cc(CCN)c(OC)cc1I [2CI, 2-(4-Iodo-2,5-dimethoxyphenyl)ethan-1-amine] | – | – | – | – | – | – | – | abrogated formation of vascular-like tubular growth | – | – | – |
| O=C(c1ccc(F)cc1)C1CCN(CCCCc2ccccc2)CC1 [4F4PP, reference compound] | – | – | – | – | – | – | – | – | inhibit VEGF-mediated human vascular endothelium tubule formation | inhibit VEGF-mediated neovascularization from aortic rings | – |
| COc1cc(C[C@@H](C)N)c(OC)cc1I [(R)-DOI, (R)-1-(2,5-dimethoxy-4-iodophenyl)-2-aminopropane] | reduced signs of disease | do not experience significant weight loss | 0/5 | 3/10* | 6/10 | increase in stromal opacity was muted | reduced slit lamp scores, corneal opacity and neovascularization | abrogated formation of vascular-like tubular growth | inhibit VEGF-mediated human vascular endothelium tubule formation | inhibit VEGF-mediated neovascularization from aortic rings; also recorded: inhibited blood vessel sprouting, branching and formation | delay in reactivation of HSV-1 from TGs (HSV-1; relative to mock): 2 fold; HSV-1 reactivation and amount of infectious virus shed from latent neurons (PFU/ml/TG) (HSV-1): inhibits HSV-1 reactivation from latent neurons; also recorded: significantly inhibited the number of reactivating TGs and the amount of infectious virus shed from neurons; HSV-1 reactivation and amount of infectious virus shed from latent neurons (PFU/ml/TG) (HSV-1; listed as DOI): significantly inhibited the degree of reactivation and amount of infectious virus shed from latent neurons; TNFα-induced inflammatory gene and protein expression [4]: potently inhibits TNFα-induced inflammatory gene and protein expression; disease relative to control BSS treatment (HSV-1 RE; after day 8, chronic immuno-pathology): significantly reduced disease relative to control BSS treatment; eyes exhibiting complete clinical resolution (HSV-1 RE; by day 15, drops topically applied for 7 days post infection): 60%; corneal neovascularization (HSV-1 RE; compared to control BSS or TFT treated eyes): decreased development of corneal neovascularization; ocular histology (H&E, central cornea) (HSV-1 RE): markedly less disease presentation in all eyes examined; also recorded: most similar to uninfected eyes; ocular histology (H&E, central cornea) (HSV-1 RE; listed as DOI): normal ocular morphology with an absence of clinical signs of ocular disease; clinical scores (slit lamp score, corneal opacity, neovascularization) (HSV-1 RE; listed as DOI): suppressed development of all clinically scored parameters; concentration at which the inhibitory effects began to no longer be as effective ([3]; neovascularization, sprouting, branching, networking): 10 nM |
| CCN(CC)C(=O)[C@@H]1C=C2c3cccc4[nH]cc(c34)C[C@H]2N(C)C1 [LSD] | – | – | – | – | – | – | – | – | – | – | symptoms of asthma (asthma in a rat model): can prevent symptoms of asthma |
| NCCc1c[nH]c2ccc(O)cc12 [serotonin, 5-hydroxytryptamine] | – | – | – | – | – | – | – | induces vascularization-like replication and tubule growth | – | – | – |
